The values that follow come from PMC3617668, “In Vitro Antileishmanial, Trypanocidal, and Mammalian Cell Activities of Diverse N,N′ -Dihetaryl Substituted Diamines and Related Compounds” (Scientia Pharmaceutica, 2012).

“And” between values parts separate entries of the source, which are not always exact repeats. Equal entries are not always repeated.

In data set [1] the test system is L. (L.) infantum intracellular amastigotes. Kind of data set: Intracellular amastigotes of L. (L.) infantum infecting THP-1 macrophages. Type of data set: cell-based, Leishmania (Leishmania) infantum. As to the method:
(§1) For the amastigotes assays, adherent Vero cells or THP-1 macrophages (after transformation with 10 ng/mL PMA) were infected with tissue-derived trypomastigotes or stationary phase promastigotes, respectively, at a ratio of 10:1 and maintained in a 5% CO2-95% air mixture at 37 °C. After 24 h, infected cultures with >50% of infected cells were incubated with the compounds (from 3–300 μM) in a three-fold dilution series for 72 h. Drug activity was determined from the % of infected cells in treated and untreated cultures in fixed methanol and Giemsa stained preparations. Parasites’ assays were performed twice and each tested concentration was tested in triplicate.
(§2) Negative controls were used without the drug (culture medium alone) in each experiment.
(§3) The data were calculated by linear regression using the software (Msxlfit; GO Business Solution, Guildford, UK). The selectivity index (SI) was calculated dividing CC50/IC50. Each experiment was repeated twice and the values represent the results of one representative experiment. […] The analysis to determine the statistical differences in biological activity was performed using the analysis of variance (ANOVA) and the Bonferroni post-test. We also performed Student’s t test for comparison between the two variables, using GraphPad Prism software version 5.03. P values <0.05 were considered to be statistically significant.

In data set [2] the test system is T. cruzi intracellular amastigotes. Kind of data set: Intracellular amastigotes of T. cruzi in Vero cells. Type of data set: cell-based, Trypanosoma cruzi. Here is the method: as §1, §2, §3
In a further data set the test system is T. cruzi epimastigotes. Nature of the data set: In vitro activity on T. cruzi epimastigotes, counting viable parasites. Type of data set: cell-based, Trypanosoma cruzi. To be noted: for IC50: Trypanosoma cruzi, 72 h, 28 °C, read-out: T. cruzi epimastigotes IC50 ± SD; for activity on T. cruzi epimastigotes, in words: free-living form; for T. cruzi epimastigotes SI: selectivity index CC50/IC50. As to the method: (§4) Epimastigotes of T. cruzi and promastigotes forms of L. […] The inhibition of parasite growth was microscopically determined by counting viable (live) parasites in a haemocytometer using yellow eosin as vital dye; live parasites (uncolored) and dead (orange) were counted. All of the experiments were performed with parasites in their logarithmic phase of growth. […] Negative controls were used without the drug (culture medium alone) in each experiment. […] The data were calculated by linear regression using the software ([…]; GO Business Solution, Guildford, UK). The selectivity index (SI) was calculated dividing CC50/IC50. Each experiment was repeated twice and the values represent the results of one representative experiment. […] The analysis to determine the statistical differences in biological activity was performed using the analysis of variance (ANOVA) and the Bonferroni post-test. We also performed Student's t test for comparison between the two variables, using GraphPad Prism software version 5.03.

In data set [3] the test system is L. (L.) amazonensis intracellular amastigotes. Nature of the data set: Intracellular amastigotes of L. (L.) amazonensis in THP-1 macrophages. Type of data set: cell-based, Leishmania (Leishmania) amazonensis. Here is the method:
as §1, §2, §3

Data set [4] in a line: Mammalian cell toxicity, MTT, THP-1 cells. Type of data set: cell-based. The note with it: human, THP-1 cells transformed into adherent macrophages with PMA, 72 h, MTT; for CC50 at 72 h: read-out: Mammalian cells THP-1 CC50 ± SD. As to the method: (§5) Vero cells and THP-1 cells transformed into adherent macrophages with PMA in 96 microwell plates where they were treated with compounds (0-350 μM) during 72 h at 37 °C, 5% CO2-95% air mixture. The viability of the cells was evaluated by using the tetrazolium-dye (MTT) colorimetric method. After incubation of the cells with the MTT (5mg/mL) reagent for 4 hours, DMSO was added. The samples were read using an ELISA plate reader at a wavelength of 580 nm. The amount of color produced is directly proportional to the number of viable cells. The percentage of cytotoxicity was calculated by the equation: cytotoxicity (%) = (OD control group-OD treatment group)/OD control group × 100 [31]. […] The data were calculated by linear regression using the software ([…]; GO Business Solution, Guildford, UK). The selectivity index (SI) was calculated dividing CC50/IC50. Each experiment was repeated twice and the values represent the results of one representative experiment. […] The analysis to determine the statistical differences in biological activity was performed using the analysis of variance (ANOVA) and the Bonferroni post-test. We also performed Student's t test for comparison between the two variables, using GraphPad Prism software version 5.03.

The nature of data set [5]: Mammalian cell toxicity, MTT, Vero cells. Format: cell-based. The note with it: African green monkey, Vero cells, 72 h, MTT; for CC50 at 72 h: read-out: Mammalian cells Vero CC50 ± SD. As to the method:
as §5

The subject of data set [6] is L.(V.) panamensis intracellular amastigotes. Nature of the data set: Intracellular amastigotes of L. (V.) panamensis in THP-1 macrophages. Type of data set: cell-based, Leishmania (Viannia) panamensis. As to the method: as §1, §2, §3
Data set [7] deals with L. (L.) infantum promastigotes. Nature of the data set: In vitro activity on L. (L.) infantum promastigotes, counting viable parasites. Format: cell-based, Leishmania (Leishmania) infantum. The note with it: for IC50: Leishmania infantum, 72 h, 28 °C, read-out: L. (L) infantum promastigotes IC50 ± SD; for activity on L. (L.) infantum promastigotes, in words: free-living form; for L. (L) infantum promastigotes SI: selectivity index CC50/IC50. Here is the method:
as §4

Another data set deals with Vero cells. Kind of data set: Mammalian cell toxicity, MTT, Vero cells. Type of data set: cell-based. Here is the method:
as §5

For a further data set, the system named is THP-1 cells. Kind of data set: Mammalian cell toxicity, MTT, THP-1 cells. Format: cell-based. As to the method: as §5

Regarding `c1ccc(CNCCNCc2ccccc2)cc1` [5a, N^1,N^2-dibenzylethane-1,2-diamine], the IC90 – broadly, the point of the concentration-response curve where the effect stands at 90% – in [1] (Leishmania infantum, THP-1 macrophages, 72 h) was 59.5 ± 2.78 µM; in [2] (Trypanosoma cruzi, Vero cells, 72 h), more than 123 µM; in [3] (Leishmania amazonensis, THP-1 macrophages, 72 h) it was 131 ± 9.14 µM; in data set [6] (THP-1 macrophages, 72 h), 88.1 ± 1.85 µM. In addition, the IC50 (commonly the concentration at which inhibition is half-maximal) in [1] (Leishmania infantum, THP-1 macrophages, 72 h, 48.58% cells infected before treatment) was determined as 25.4 ± 0.33 µM; in [2] (Trypanosoma cruzi, Vero cells, 72 h, 98.1% cells infected before treatment) it was 131.2 ± 0.92 µM; in the data set on T. cruzi epimastigotes, 2.54 ± 0.08 µM; in [3] (Leishmania amazonensis, THP-1 macrophages, 72 h, 58.6% cells infected before treatment), 49.3 ± 4.7 µM; in data set [6] (THP-1 macrophages, 72 h, 78.3% cells infected before treatment) it was 58.2 ± 3.23 µM; in data set [7], 12.2 ± 2.45 µM. Moreover, the “L. (L.) infantum intracellular amastigotes SI” value in data set [1] (selectivity index CC50/IC50) is 9.39 and 9. The “T. cruzi intracellular amastigotes SI” value in data set [2] (selectivity index CC50/IC50) is 0.48. In addition, the “activity on T. cruzi epimastigotes, in words” value in the data set on T. cruzi epimastigotes is “active”. In addition, in data set [3] (selectivity index CC50/IC50), the “L. (L.) amazonensis intracellular amastigotes SI” value stood at 6. Further, the CC50 (usually the concentration at which the toxic effect on the cells reaches its halfway point) at 72 h was determined as 239 ± 17.9 µM in data set [4] and 75.3 ± 2.57 µM in data set [5]. Moreover, the “activity on intracellular amastigotes of L. panamensis, in words” value in data set [6] is “partially active (partially active with IC50 >25 μM and IC90 <100 μM)”. Further, the “L.(V.) panamensis intracellular amastigotes SI” value in data set [6] (selectivity index CC50/IC50) amounted to 5. Moreover, the “activity on L. (L.) infantum promastigotes, in words” value in [7] is “active”. Moreover, the “L. (L) infantum promastigotes SI” value in [7] is 19.58.

Regarding `O=C(CCl)NCCNC(=O)CCl` [7a], in the data set with T. cruzi epimastigotes, the IC50 worked out at 65.9 ± 5.54 µM and the “T. cruzi epimastigotes SI” value is listed as 0.38. Besides, in [4], the CC50 at 72 h is more than 300 µM. For the same compound, the “toxicity on Vero cells, in words” value in the data set with Vero cells is reported as “toxic”. In [5], the CC90 at 72 h turned out to be 49.5 ± 1.87 µM and the CC50 at 72 h was determined as 25.7 ± 1.22 µM. In [7], the IC50 stood at 176 ± 19 µM and the “L. (L) infantum promastigotes SI” value is recorded as more than 2.66.

With `O=C(CCl)NCCCCNC(=O)CCl` [7c], in the data set with T. cruzi epimastigotes, the IC50 came to 54.2 ± 1.16 µM and the “T. cruzi epimastigotes SI” value was determined as 0.68. Besides, in data set [4], the CC50 at 72 h came to 366 µM. Further, the “toxicity on Vero cells, in words” value in the data set with Vero cells is given as “toxic”. In data set [5], the CC90 at 72 h was 77.6 ± 3.15 µM and the CC50 at 72 h stood at 37.1 ± 0.45 µM. For the same compound, in [7], the IC50 came out at 132 ± 7.63 µM and the “L. (L) infantum promastigotes SI” value is on record as 2.76.

Take `O=C(CCl)N(CCCCN(Cc1ccccc1)C(=O)CCl)Cc1ccccc1` [compound 8]: in the data set on T. cruzi epimastigotes, the IC50 is 0.02 ± 0.004 µM and the “activity on T. cruzi epimastigotes, in words” value is given as “active”. Also, the “toxicity on THP-1 cells, in words” value in the data set with THP-1 cells is “partially toxic”. Moreover, in [4], the CC90 at 72 h was more than 208 µM and the CC50 at 72 h stood at 25.1 ± 0.35 µM. In addition, in [5], the CC50 at 72 h is more than 250 µM. Besides, in data set [7], the IC50 was determined as 3.91 ± 0.01 µM; the “activity on L. (L.) infantum promastigotes, in words” value was “active”; the “L. (L) infantum promastigotes SI” value worked out at 6.4.
